Source: EP4324461A1, “(E)-N-CINAMOYLAMINOALKANOLES WITH MELANOGENESIS INHIBITORY ACTIVITY” (UNIWERSYTET JAGIELLONSKI, priority 2022, dated 2024)

What was measured:
[1] = tested on: neuroblastoma SH-SY5Y; assay: Safety, LDH test in SH-SY5Y; type: cell-based; conditions: 48 hours, positive control Triton X-100
Method: (§1) In order to test the safety of the compounds, both normal human cells were used: keratinocytes (HaCaT), fibroblasts (BJ), primary melanocytes that occur in the skin, as well as human cancer cells: the hepatocarcinoma line HepG2 and the neuroblastoma line SH-SY5Y, which are considered a model for the assessment of hepatocytotoxicity and neurocytotoxicity. The concentrations of the tested compounds in the range of 250-100 µM were used in the studies. The cell lines used in the research were purchased from the American Type Culture Collection (ATCC) and were cultured in media recommended by the manufacturer with the addition of FBS and antibiotics in an incubator ensuring appropriate culture conditions, i.e. humidity, temperature and CO2 concentration. Cells were seeded into multiwell plates and incubated with the test compounds for 48 hours. After this time, MTT and LDH tests were performed to assess cell viability. The MTT test is based on the ability to transform the substrate: [3-(4,5-dimethyl-2-thiazolyl)-2,5-diphenyl-2H-tetrazolium bromide into a colored product only by living cells. The absorbance at 570 nm, which corresponds to the absorption maximum for the product, is directly proportional to cell viability. The LDH test is based on testing the activity of the enzyme lactate dehydrogenase in the culture medium, which is released from cells as a result of damage to the cell membrane, e.g. as a result of cell death. Triton X-100 was used as a positive control in the test. The determination is colorimetric, the substrate is transformed by the released enzyme into a colored product, an increase in absorbance indicates a larger amount of the released enzyme, and thus confirms greater damage to cell membranes. Tables 7 and 8 present the results obtained, which correspond to the viability of cells incubated with the compounds in relation to the viability of cells constituting a control sample, i.e. incubated with the solvent (DMSO) at the same concentration as in the case of the groups tested in the MTT test or in relation to the results obtained for the Triton X-100 positive control in the LDH test. They indicate that the compounds are safe at the concentrations tested. Table 7. Viability of tested normal human cell lines: keratinocytes (HaCaT), fibroblasts (BJ) and primary melanocytes after incubation with the tested compounds - determination in the MTT test (% of solvent control ± SD) and LDH (percentage of positive control - Triton X-100.

[2] = tested on: Hepatocarcinoma HepG2; assay: Safety, MTT test in HepG2; type: cell-based; conditions: 48 hours
Method: as §1

[3] = tested on: Hepatocarcinoma HepG2; assay: Safety, LDH test in HepG2; type: cell-based; conditions: 48 hours, positive control Triton X-100
Method: as §1

[4] = tested on: E. coli WP2; assay: Ames microplate test, E. coli WP2; conditions: without S9;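 also: bacteria treated 90 min at 37 °C in 24-well plates, then indicator medium dispensed to 384-well plates and incubated 48 h before yellow-well counting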
[5] = tested on: Keratinocytes (HaCaT); assay: Safety, LDH test in keratinocytes; type: cell-based; conditions: 48 hours, positive control Triton X-100
Method: as §1

[6] = tested on: S. typhimurium TA100; assay: Ames microplate test, TA100; type: cell-based, Salmonella typhimurium; conditions: without S9;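 also: reference level is the mean solvent-control yellow wells plus SD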
Method: Bacteria were grown overnight in growth medium.
Table 9. Ames microplate test results.

[7] = tested on: Keratinocytes (HaCaT); assay: Safety, MTT test in keratinocytes; type: cell-based; conditions: 48 hours
Method: as §1

Cc1ccc(/C=C/C(=O)NCCCCCO)cc1 [H-415/21, (2E)-N-(5-hydroxypentyl)-3-(4-methylphenyl)prop-2-enamide]
Neuroblastoma SH-SYSY LDH ([1]; 100 µM): 3.90 percentage of positive control | Neuroblastoma SH-SYSY LDH ([1]; 150 µM): 7.24 percentage of positive control | Neuroblastoma SH-SYSY LDH ([1]; 200 µM): 8.92 percentage of positive control | Neuroblastoma SH-SYSY LDH ([1]; 250 µM): 10.55 percentage of positive control | Hepatocarcinoma HepG2 MTT ([2]; 100 µM): 100.32±1.75 % of solvent control | Hepatocarcinoma HepG2 MTT ([2]; 150 µM): 99.54±5.74 % of solvent control | Hepatocarcinoma HepG2 MTT ([2]; 200 µM): 100.53±3.98 % of solvent control | Hepatocarcinoma HepG2 MTT ([2]; 250 µM): 98.90±4.21 % of solvent control | Hepatocarcinoma HepG2 LDH ([3]; 100 µM): 3.90 percentage of positive control | Hepatocarcinoma HepG2 LDH ([3]; 150 µM): 7.24 percentage of positive control | Hepatocarcinoma HepG2 LDH ([3]; 200 µM): 8.92 percentage of positive control | Hepatocarcinoma HepG2 LDH ([3]; 250 µM): 15.47 percentage of positive control | Increase in the number of yellow wells compared to the reference level ([4]; 0.5 mM): 0.64 | Increase in the number of yellow wells compared to the reference level ([4]; 1.0 mM): 0.40 | Increase in the number of yellow wells compared to the reference level ([4]; 2.0 mM): 0.95 | Keratinocytes (HaCaT) LDH ([5]; 100 µM): 2.95 percentage of positive control | Keratinocytes (HaCaT) LDH ([5]; 150 µM): 6.70 percentage of positive control | Keratinocytes (HaCaT) LDH ([5]; 200 µM): 10.18 percentage of positive control | Keratinocytes (HaCaT) LDH ([5]; 250 µM): 18.19 percentage of positive control | Increase in the number of yellow wells compared to the reference level ([6]; 0.5 mM): 0.92 | Increase in the number of yellow wells compared to the reference level ([6]; 1.0 mM): 0.58 | Increase in the number of yellow wells compared to the reference level ([6]; 2.0 mM): 0.75 | Keratinocytes (HaCaT) MTT ([7]; 100 µM): 101.11±2.03 % of solvent control | Keratinocytes (HaCaT) MTT ([7]; 150 µM): 101.78±2.32 % of solvent control | Keratinocytes (HaCaT) MTT ([7]; 200 µM): 100.88±1.40 % of solvent control | Keratinocytes (HaCaT) MTT ([7]; 250 µM): 88.54±3.74 % of solvent control
